According to ChEMBL document CHEMBL1201862, “PubChem BioAssay data set” (2004):
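The compound was tested at five concentrations on cells cultured in 96-well plates, with a 48-hour exposure period. Here, GI50 denotes the concentration required for 50% inhibition of growth.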 The source made the active and inactive calls. No stated cut-off is given here; in the data, active = GI50 up to about 1.1 µM and inactive = higher.

Columns and labels:
Test in all cases: NCI-60 cell line screen, 48 h
UACC-62 = tested on: UACC-62
UO-31 = tested on: UO-31
K562 = tested on: K562
OVCAR-8 = tested on: OVCAR-8
NCI-H522 = tested on: NCI-H522
SN12C = tested on: SN12C
DLD-1 = tested on: DLD-1
SNB-75 = tested on: SNB-75
M14 = tested on: M14
COLO 205 = tested on: COLO 205
SF-539 = tested on: SF-539
NCI-H226 = tested on: NCI-H226
KM12 = tested on: KM12
SNB-78 = tested on: SNB-78
SK-OV-3 = tested on: SK-OV-3
HCT-15 = tested on: HCT-15
HOP-62 = tested on: HOP-62
MOLT-4 = tested on: MOLT-4
NCI-H460 = tested on: NCI-H460
SK-MEL-28 = tested on: SK-MEL-28
EKVX = tested on: EKVX
A498 = tested on: A498
786-0 = tested on: 786-0
IGROV-1 = tested on: IGROV-1
M19-MEL = tested on: M19-MEL
SK-MEL-2 = tested on: SK-MEL-2
RXF 631 = tested on: RXF 631
HL-60 = tested on: HL-60
HCT-116 = tested on: HCT-116
A549 = tested on: A549
NCI-H23 = tested on: NCI-H23
CCRF-CEM = tested on: CCRF-CEM
ACHN = tested on: ACHN
U-251 = tested on: U-251
HOP-92 = tested on: HOP-92
LOX IMVI = tested on: LOX IMVI
LXFL 529 = tested on: LXFL 529
OVCAR-5 = tested on: OVCAR-5
SF-295 = tested on: SF-295
TK-10 = tested on: TK-10
KM-20L2 = tested on: KM-20L2
DMS-114 = tested on: DMS-114
SK-MEL-5 = tested on: SK-MEL-5
RXF 393 = tested on: RXF 393
OVCAR-4 = tested on: OVCAR-4
RPMI-8226 = tested on: RPMI-8226
SF-268 = tested on: SF-268
SNB-19 = tested on: SNB-19
HT-29 = tested on: HT-29
DMS-273 = tested on: DMS-273
SW-620 = tested on: SW-620
OVCAR-3 = tested on: OVCAR-3
Malme-3M = tested on: Malme-3M
CAKI-1 = tested on: CAKI-1
HOP-18 = tested on: HOP-18
HCC 2998 = tested on: HCC 2998
UACC-257 = tested on: UACC-257
SR = tested on: SR

COc1cc(Br)c(C2OCCCO2)cc1OCc1ccccc1
GI50 (UACC-62): 73.5 µM (inactive) | GI50 (UO-31): 28.2 µM (inactive) | GI50 (K562): 53.2 µM (inactive) | GI50 (OVCAR-8): > 100 µM (inactive) | GI50 (NCI-H522): 66.1 µM (inactive) | GI50 (SN12C): > 100 µM (inactive) | GI50 (DLD-1): 39.8 µM (inactive) | GI50 (SNB-75): > 100 µM (inactive) | GI50 (M14): 67.9 µM (inactive) | GI50 (COLO 205): > 100 µM (inactive) | GI50 (SF-539): 73.1 µM (inactive) | GI50 (NCI-H226): 17.5 µM (inactive) | GI50 (KM12): > 100 µM (inactive) | GI50 (SNB-78): 61.4 µM (inactive) | GI50 (SK-OV-3): > 100 µM (inactive) | GI50 (HCT-15): 61.1 µM | GI50 (HOP-62): > 100 µM (inactive) | GI50 (MOLT-4): 41.6 µM (inactive) | GI50 (NCI-H460): 55.7 µM (inactive) | GI50 (SK-MEL-28): 60.3 µM (inactive) | GI50 (EKVX): > 100 µM (inactive) | GI50 (A498): > 100 µM (inactive) | GI50 (786-0): > 100 µM (inactive) | GI50 (IGROV-1): > 100 µM (inactive) | GI50 (M19-MEL): > 100 µM (inactive) | GI50 (SK-MEL-2): > 100 µM (inactive) | GI50 (RXF 631): > 100 µM (inactive) | GI50 (HL-60): 38.5 µM (inactive) | GI50 (HCT-116): 39.7 µM (inactive) | GI50 (A549): 73.5 µM (inactive) | GI50 (NCI-H23): 85.5 µM (inactive) | GI50 (CCRF-CEM): 94.2 µM (inactive) | GI50 (ACHN): 37.9 µM (inactive) | GI50 (U-251): > 100 µM (inactive) | GI50 (HOP-92): 9.86 µM (inactive) | GI50 (LOX IMVI): 78.3 µM (inactive) | GI50 (LXFL 529): 48.2 µM (inactive) | GI50 (OVCAR-5): > 100 µM (inactive) | GI50 (SF-295): > 100 µM (inactive) | GI50 (TK-10): > 100 µM (inactive) | GI50 (KM-20L2): > 100 µM (inactive) | GI50 (DMS-114): 47.1 µM (inactive) | GI50 (SK-MEL-5): 46.3 µM (inactive) | GI50 (RXF 393): 64 µM (inactive) | GI50 (OVCAR-4): 69.5 µM (inactive) | GI50 (RPMI-8226): 52.8 µM (inactive) | GI50 (SF-268): 39 µM (inactive) | GI50 (SNB-19): > 100 µM (inactive) | GI50 (HT-29): > 100 µM (inactive) | GI50 (DMS-273): 37.6 µM (inactive) | GI50 (SW-620): > 100 µM (inactive) | GI50 (OVCAR-3): 47.2 µM (inactive)

O=C(NCCCCCCCCCCCCNC(=O)c1cnc2ccccc2n1)c1cnc2ccccc2n1
GI50 (UACC-62): > 100 µM (inactive) | GI50 (UO-31): 23.9 µM (inactive) | GI50 (K562): > 100 µM (inactive) | GI50 (Malme-3M): > 100 µM (inactive) | GI50 (OVCAR-8): 9.4 µM (inactive) | GI50 (NCI-H522): 19 µM (inactive) | GI50 (SN12C): 66.1 µM (inactive) | GI50 (DLD-1): > 100 µM (inactive) | GI50 (SNB-75): 20.8 µM (inactive) | GI50 (M14): > 100 µM (inactive) | GI50 (COLO 205): > 100 µM (inactive) | GI50 (SF-539): 15.1 µM (inactive) | GI50 (NCI-H226): 48 µM (inactive) | GI50 (KM12): > 100 µM (inactive) | GI50 (SNB-78): 76.9 µM (inactive) | GI50 (SK-OV-3): 22.6 µM (inactive) | GI50 (HCT-15): > 100 µM | GI50 (HOP-62): 20.6 µM (inactive) | GI50 (CAKI-1): > 100 µM (inactive) | GI50 (MOLT-4): > 100 µM (inactive) | GI50 (NCI-H460): 48.1 µM (inactive) | GI50 (SK-MEL-28): > 100 µM (inactive) | GI50 (EKVX): > 100 µM (inactive) | GI50 (A498): 24.9 µM (inactive) | GI50 (786-0): 31.7 µM (inactive) | GI50 (IGROV-1): 54.3 µM (inactive) | GI50 (M19-MEL): > 100 µM (inactive) | GI50 (SK-MEL-2): > 100 µM (inactive) | GI50 (RXF 631): 99.5 µM (inactive) | GI50 (HL-60): > 100 µM (inactive) | GI50 (HCT-116): 41.5 µM (inactive) | GI50 (A549): 92.5 µM (inactive) | GI50 (CCRF-CEM): > 100 µM (inactive) | GI50 (ACHN): 44.3 µM (inactive) | GI50 (U-251): 28.8 µM (inactive) | GI50 (LOX IMVI): 39.8 µM (inactive) | GI50 (LXFL 529): 33.7 µM (inactive) | GI50 (SF-295): 37 µM (inactive) | GI50 (KM-20L2): > 100 µM (inactive) | GI50 (DMS-114): 27.8 µM (inactive) | GI50 (SK-MEL-5): 9.59 µM (inactive) | GI50 (RXF 393): 31.3 µM (inactive) | GI50 (HOP-18): 20.7 µM (inactive) | GI50 (OVCAR-4): 13.6 µM (inactive) | GI50 (HCC 2998): > 100 µM (inactive) | GI50 (RPMI-8226): 23.4 µM (inactive) | GI50 (SF-268): > 100 µM (inactive) | GI50 (UACC-257): 47.8 µM (inactive) | GI50 (SNB-19): 14.8 µM (inactive) | GI50 (HT-29): > 100 µM (inactive) | GI50 (DMS-273): 64.6 µM (inactive) | GI50 (SW-620): > 100 µM (inactive) | GI50 (OVCAR-3): 34.7 µM (inactive)

NC(CCc1nc(-c2cccc([N+](=O)[O-])c2)cs1)C(=O)O (stereo unspecified)
GI50 (UACC-62): > 100 µM (inactive) | GI50 (UO-31): > 100 µM (inactive) | GI50 (OVCAR-8): > 100 µM (inactive) | GI50 (NCI-H522): > 100 µM (inactive) | GI50 (M14): > 100 µM (inactive) | GI50 (KM12): > 100 µM (inactive) | GI50 (SNB-78): > 100 µM (inactive) | GI50 (SK-OV-3): > 100 µM (inactive) | GI50 (SR): > 100 µM (inactive) | GI50 (HOP-62): > 100 µM (inactive) | GI50 (MOLT-4): > 100 µM (inactive) | GI50 (NCI-H460): > 100 µM (inactive) | GI50 (SK-MEL-28): > 100 µM (inactive) | GI50 (EKVX): > 100 µM (inactive) | GI50 (A498): > 100 µM (inactive) | GI50 (IGROV-1): > 100 µM (inactive) | GI50 (M19-MEL): > 100 µM (inactive) | GI50 (RXF 631): > 100 µM (inactive) | GI50 (HL-60): > 100 µM (inactive) | GI50 (HCT-116): > 100 µM (inactive) | GI50 (A549): > 100 µM (inactive) | GI50 (NCI-H23): > 100 µM (inactive) | GI50 (CCRF-CEM): > 100 µM (inactive) | GI50 (ACHN): > 100 µM (inactive) | GI50 (U-251): > 100 µM (inactive) | GI50 (HOP-92): > 100 µM (inactive) | GI50 (OVCAR-5): > 100 µM (inactive) | GI50 (SF-295): > 100 µM (inactive) | GI50 (TK-10): > 100 µM (inactive) | GI50 (KM-20L2): > 100 µM (inactive) | GI50 (DMS-114): > 100 µM (inactive) | GI50 (RXF 393): > 100 µM (inactive) | GI50 (UACC-257): > 100 µM (inactive) | GI50 (SNB-19): > 100 µM (inactive) | GI50 (HT-29): > 100 µM (inactive) | GI50 (DMS-273): > 100 µM (inactive)
